# Source: patent publication US20160333419A1, “GENE SIGNATURES ASSOCIATED WITH SENSITIVITY TO MDM2 INHIBITORS” (DAIICHI SANKYO COMPANY, LIMITED, priority 2014, published 2016)
# Legend:
# Experiment in all cases: OncoPanel cytotoxicity assay
# Format in all cases: cell-based
# SR = conditions: Homo sapiens, 72 hour incubation
# Protocol: (§1) Cells were grown in RPMI 1640, 10% FBS, 2 mM L-alanyl-L-Glutamine, 1 mM Na Pyruvate, or a special medium in a humidified atmosphere of 5% CO2 at 37° C. Cells were seeded into 384-well plates and incubated in a humidified atmosphere of 5% CO2 at 37° C. Test compounds were added 24 hours post cell seeding. At the same time, a time zero, untreated cell plate was generated as a control. After a 72 hour incubation period, cells were fixed and stained with nuclear dye to allow visualization of nuclei.
# (§2) Compounds were serially diluted 3.16-fold and assayed over 10 concentrations of inhibitor in a final assay concentration of 0.1% DMSO from the highest test concentration specified in the sample information chapter. Automated fluorescence microscopy was carried out using a GE Healthcare InCell Analyzer 1000, and images were collected with a 4× objective. Twelve bit tiff images were acquired using the InCell Analyzer 1000 3.2 and analyzed with Developer Toolbox 1.6 software.
# (§3) Cell proliferation was measured by the signal intensity of the incorporated nuclear dye. The cell proliferation assay output is referred to as the relative cell count. To determine the cell proliferation end point, the cell proliferation data output is transformed to percent of control (POC) using the following formula: […]
# (§4) Relative cell count IC50 (IC50) is the test compound's concentration that produces 50% of the cell proliferation inhibitory response or 50% cytotoxicity level. IC50 values were calculated using nonlinear regression to fit data to a sigmoidal 4 point, 4 parameter One-Site dose response model, where: y (fit)=A+[(B−A)/(1+((C/x)̂D))]. Curve-fitting, IC50 calculations and report generation were performed using a custom data reduction engine MathIQ based software (AIM). […] In these cases, the IC50 values were expressed as 40 μM and 10 μM, respectively (Table 2).
# DK-MG = conditions: Homo sapiens, 72 hour incubation
# Protocol: as §1, §2, §3, §4
# HT-1197 = conditions: Homo sapiens, HT1197, 72 hour incubation
# Protocol: as §1, §2, §3, §4
# Daudi = conditions: Homo sapiens, 72 hour incubation
# Protocol: as §1, §2, §3, §4
# NCI-H508 = conditions: Homo sapiens, 72 hour incubation
# Protocol: as §1, §2, §3, §4
# LNCaP = conditions: Homo sapiens, 72 hour incubation
# Protocol: as §1, §2, §3, §4
# ChaGoK1 = conditions: Homo sapiens, ChaGo-K-1, 72 hour incubation
# Protocol: as §1, §2, §3, §4
# U-87 MG = conditions: Homo sapiens, 72 hour incubation
# Protocol: as §1, §2, §3, §4
# EB-3 = conditions: Homo sapiens, 72 hour incubation
# Protocol: as §1, §2, §3, §4
# OCUG-1 = conditions: Homo sapiens, 72 hour incubation
# Protocol: as §1, §2, §3, §4
# NCI-H520 = conditions: Homo sapiens, 72 hour incubation
# Protocol: as §1, §2, §3, §4
# MHH-PREB-1 = conditions: Homo sapiens, 72 hour incubation
# Protocol: as §1, §2, §3, §4
# Thp1 = conditions: Homo sapiens, THP-1, 72 hour incubation
# Protocol: as §1, §2, §3, §4
# TE 381.T = conditions: Homo sapiens, 72 hour incubation
# Protocol: as §1, §2, §3, §4
# SK-BR-3 = conditions: Homo sapiens, 72 hour incubation
# Protocol: as §1, §2, §3, §4
# SKO-007 = conditions: Homo sapiens, 72 hour incubation
# Protocol: as §1, §2, §3, §4
# NCI-H596 = conditions: Homo sapiens, 72 hour incubation
# Protocol: as §1, §2, §3, §4
# RKOE6 = conditions: Homo sapiens, 72 hour incubation
# Protocol: as §1, §2, §3, §4
# DMS114 = conditions: Homo sapiens, DMS-114, 72 hour incubation
# Protocol: as §1, §2, §3, §4
# SK-NEP-1 = conditions: Homo sapiens, 72 hour incubation
# Protocol: as §1, §2, §3, §4
# FaDu = conditions: Homo sapiens, 72 hour incubation
# Protocol: as §1, §2, §3, §4
# Y79 = conditions: Homo sapiens, 72 hour incubation
# Protocol: as §1, §2, §3, §4
# DB = conditions: Homo sapiens, 72 hour incubation
# Protocol: as §1, §2, §3, §4
# A204 = conditions: Homo sapiens, 72 hour incubation
# Protocol: as §1, §2, §3, §4
# MV-4-11 = conditions: Homo sapiens, MV4-11, 72 hour incubation
# Protocol: as §1, §2, §3, §4
# WiDr = conditions: Homo sapiens, 72 hour incubation
# Protocol: as §1, §2, §3, §4
# SW837 = conditions: Homo sapiens, 72 hour incubation
# Protocol: as §1, §2, §3, §4
# BT20 = conditions: Homo sapiens, BT-20, 72 hour incubation
# Protocol: as §1, §2, §3, §4
# BT-549 = conditions: Homo sapiens, 72 hour incubation
# Protocol: as §1, §2, §3, §4
# SKOV3 = conditions: Homo sapiens, SK-OV-3, 72 hour incubation
# Protocol: as §1, §2, §3, §4
# SW620 = conditions: Homo sapiens, SW-620, 72 hour incubation
# Protocol: as §1, §2, §3, §4
# MEG01 = conditions: Homo sapiens, MEG-01, 72 hour incubation
# Protocol: as §1, §2, §3, §4
# Wi38 = conditions: Homo sapiens, WI-38, 72 hour incubation
# Protocol: as §1, §2, §3, §4
# HeLa = conditions: Homo sapiens, 72 hour incubation
# Protocol: as §1, §2, §3, §4
# RKO = conditions: Homo sapiens, 72 hour incubation
# Protocol: as §1, §2, §3, §4
# J-RT3-T3-5 = conditions: Homo sapiens, 72 hour incubation
# Protocol: as §1, §2, §3, §4
# CaOV3 = conditions: Homo sapiens, Caov-3, 72 hour incubation
# Protocol: as §1, §2, §3, §4
# KPL-1 = conditions: Homo sapiens, 72 hour incubation
# Protocol: as §1, §2, §3, §4
SMILES,IC50 (SR),IC50 (DK-MG),IC50 (HT-1197),IC50 (Daudi),IC50 (NCI-H508),IC50 (LNCaP),IC50 (ChaGoK1),IC50 (U-87 MG),IC50 (EB-3),IC50 (OCUG-1),IC50 (NCI-H520),IC50 (MHH-PREB-1),IC50 (Thp1),IC50 (TE 381.T),IC50 (SK-BR-3),IC50 (SKO-007),IC50 (NCI-H596),IC50 (RKOE6),IC50 (DMS114),IC50 (SK-NEP-1),further results
"CC[C@@H]1CNC2(CC2)CN1C(=O)[C@@H]1C[C@@H](F)CN1C(=O)C1=C(C(C)C)N2C(=N[C@@](C)(c3ccc(Cl)nc3)[C@H]2c2ccc(Cl)c(F)c2)S1 [Compound A, [(5R,6S)-5-(4-Chloro-3-fluorophenyl)-6-(6-chloropyridin-3-yl)-6-methyl-3-(propan-2-yl)-5,6-dihydroimidazo[2,1-b][1,3]thiazol-2-yl][(2S,4R)-2-{[(6R)-6-ethyl-4,7-diazaspiro[2.5]oct-7-yl]carbonyl}-4-fluoropyrrolidin-1-yl]methanone]",0.257 µM,0.645 µM,0.235 µM,0.599 µM,> 40 µM,0.27 µM,> 40 µM,0.261 µM,> 40 µM,> 40 µM,> 40 µM,> 40 µM,> 40 µM,37.3 µM,27.7 µM,> 40 µM,> 40 µM,38.2 µM,> 40 µM,> 40 µM,IC50 (FaDu): > 40 µM; IC50 (Y79): 1.05 µM; IC50 (DB): > 40 µM; IC50 (A204): 0.755 µM; IC50 (MV-4-11): 0.372 µM; IC50 (WiDr): 34.8 µM; IC50 (SW837): > 40 µM; IC50 (BT20): > 40 µM; IC50 (BT-549): > 40 µM; IC50 (SKOV3): > 40 µM; IC50 (SW620): > 40 µM; IC50 (MEG01): > 40 µM; IC50 (Wi38): 0.171 µM; IC50 (HeLa): > 40 µM; IC50 (RKO): 0.654 µM; IC50 (J-RT3-T3-5): > 40 µM; IC50 (CaOV3): > 40 µM; IC50 (KPL-1): 0.455 µM
"CC1(C)CCC2(CC1)N[C@@H](C(=O)N[C@@H]1CC[C@@H](C(N)=O)OC1)[C@H](c1ccnc(Cl)c1F)[C@]21C(=O)Nc2cc(Cl)ccc21 [Compound B, (3′R,4′S,5′R)—N-[(3R,6S)-6-carbamoyltetrahydro-2H-pyran-3-yl]-6″-chloro-4′-(2-chloro-3-fluoropyridin-4-yl)-4,4-dimethyl-2″-oxo-1″,2″-dihydrodispiro[cyclohexane-1,2′-pyrrolidine-3′,3″-indole]-5′-carboxamide]",0.0262 µM,0.0553 µM,0.135 µM,0.132 µM,> 10 µM,0.064 µM,> 10 µM,0.0376 µM,> 10 µM,> 10 µM,> 10 µM,8.3 µM,> 10 µM,9.73 µM,> 10 µM,8.64 µM,> 10 µM,7.59 µM,> 10 µM,> 10 µM,IC50 (FaDu): > 10 µM; IC50 (Y79): 0.159 µM; IC50 (DB): 5.98 µM; IC50 (A204): 0.0294 µM; IC50 (MV-4-11): 0.0254 µM; IC50 (WiDr): 5.58 µM; IC50 (SW837): > 10 µM; IC50 (BT20): > 10 µM; IC50 (BT-549): > 10 µM; IC50 (SKOV3): > 10 µM; IC50 (SW620): 7.12 µM; IC50 (MEG01): 9.7 µM; IC50 (Wi38): 0.0379 µM; IC50 (HeLa): > 10 µM; IC50 (RKO): 0.107 µM; IC50 (J-RT3-T3-5): > 10 µM; IC50 (CaOV3): > 10 µM; IC50 (KPL-1): 0.031 µM
